Data as given in patent US9180156B2, “Composition for controlling increase in blood glucose” (priority 2008, dated 2015).

Tests used:
U937 cells = details: cited from earlier work
[1] = Intraperitoneal glucose tolerance test (IPGTT) in rats; assay type: in vivo, rat; details: catechin 10 mg/kg i.v. 30 min before glucose 2.0 g/kg i.p.; 12-h fasted rats (FIG. 2)
Method: Sprague-Dawley rats were provided by Hyochang Science Co. (Seoul, Korea). After a 12-h fast, rats were anesthetized using pentobarbital sodium (40 mg/kg, i.p.; Nembutal, 50 mg/ml, Hanlim Pharmaceutical Co., Seoul, Korea) and then injected with one of the epicatechins: EGCG, EGC, ECG, and EC (each 10 mg/kg in 300 μl PBS, i.v.). EC was dissolved in a minute amount of DMSO in advance before addition of PBS. In another experiment, rats were randomly divided into 3 groups: control, GTE and GTE-GC. The rats in the GTE group were injected with natural GTE (100 mg/kg in 300 μl PBS, i.v.; 10 mg/kg as EGCG) through the tail vein, while the control rats were injected with only 300 μl PBS and rats in the GTE-GC group were given an equal amount of GC-deficient GTE (100 mg/kg in 300 μl PBS, i.v.; 2.6 mg/kg as EGCG). Thirty minutes after the injection, glucose (2.0 g/kg in 600 μl distilled water, i.p.) was injected. For OGTT, the rats were ingested with 1-ml distilled water only (control), or 1-ml distilled water containing one of natural GTE (900 mg/kg), GC-deficient GTE (900 mg/kg), EGCG (90 mg/kg), natural GTE plus PEG (110 mg/100 mg EGCG) or PEG alone. Immediately after the ingestion, each rat was orally given 1-ml distilled water containing glucose (2 g/kg). For the assay of blood glucose levels, blood was drawn from the tail vein at the indicated times. All the experiments were approved by the Keimyung University institutional ethics committee, Daegu, Korea for supervising animal research.

[2] = target: T1, glucose transporter type 1 (Homo sapiens, UniProt P11166); details: red blood cells; read-out: concentration competing with glucose such that the reaction rate was half its maximal value; cited from earlier work
T1 construct: glucose transporter type 1 in red blood cells; host or cells: red blood cells (erythrocytes)
T1 sequence (P11166 1-492): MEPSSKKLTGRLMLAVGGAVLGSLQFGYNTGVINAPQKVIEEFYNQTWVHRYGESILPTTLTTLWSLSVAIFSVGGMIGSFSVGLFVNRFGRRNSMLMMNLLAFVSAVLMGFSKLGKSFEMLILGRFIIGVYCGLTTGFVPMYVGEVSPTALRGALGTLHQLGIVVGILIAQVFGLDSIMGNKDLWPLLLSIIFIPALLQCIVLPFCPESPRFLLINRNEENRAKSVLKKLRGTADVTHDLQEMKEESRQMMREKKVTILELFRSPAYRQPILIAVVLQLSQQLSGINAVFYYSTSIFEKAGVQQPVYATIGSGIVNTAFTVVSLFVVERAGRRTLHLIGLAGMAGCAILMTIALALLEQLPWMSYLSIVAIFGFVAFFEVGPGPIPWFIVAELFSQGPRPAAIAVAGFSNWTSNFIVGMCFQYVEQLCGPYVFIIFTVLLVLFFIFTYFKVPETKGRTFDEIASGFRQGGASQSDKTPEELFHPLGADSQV

[3] = 10 mg/kg i.v.; rats; cited from earlier work
[4] = Insulin tolerance test (ITT) in normal rats; assay type: in vivo, rat
Method: Kir6.2 knock-out (k/o) mice were kindly provided by Prof. Susumu Seino at Kobe University in Japan. Following a 4-h fast, Kir6.2 k/o mice or normal rats were intravenously injected with PBS (100 μl for mouse, 300 μl for rat) only, or PBS containing EGCG (10 mg/kg), natural GTE (100 mg/kg) or GC-deficient GTE (100 mg/kg). Thirty minutes after the injection, the mice and rats were injected intraperitoneally with normal saline (300 μl for mouse, 600 μl for rat) containing insulin (1 IU/kg; INSULIN […], Ind.). Blood samplings were done through the tail vein at the indicated times.

[5] = tested on: differentiated 3T3-L1 adipocytes; assay: Deoxyglucose uptake assay, 3T3-L1; assay type: cell-based, mouse; details: EGCG 0.1, 1.0, 10 μM; with or without 100 nM insulin (FIG. 3C)
Method: (§1) Rat L6 myoblasts were cultured in low-glucose DMEM with 10% (v/v) FBS until they reached 80% confluency. To induce differentiation, cells were further cultured in DMEM (24.9 mM glucose) containing 2% FBS for 7 days. Cell viability was assessed by the trypan blue viability test. Myogenic differentiation to myotube status was evaluated both morphologically and biochemically. Mouse 3T3-L1 preadipocytes were grown to confluence at 37° C. in 35-mm culture dishes in DMEM containing 10% FCS with no added biotin or pantothenate in incubators equilibrated with 5% CO2. […] Cell differentiation was evaluated by the Oil red-0 staining. […]
(§2) Briefly, after serum starvation for 30 min, the cells were washed with Krebs-Ringer phosphate-HEPES buffer [KRPH buffer: 10 mM phosphate buffer, pH 7.4; 1 mM MgSO4, 1 mM CaCl2, 136 mM NaCl, 4.7 mM KCl, and 10 mM HEPES, pH 7.6] and then incubated with or without 100 nM insulin for 20 min in KRPH buffer that contained EGCG (0, 0.1, 1.0 or 10 μM). Glucose transport was determined by the addition of 2-deoxy-[^3H] glucose (0.1 mM, 0.5 μCi/ml; PerkinElmer Life and Analytical Science, Waltham, Mass.). […] The cells were then lysed in PBS containing 0.2 M NaOH, and glucose uptake was assessed by scintillation counting.

protein kinase B (PKB) [6] = assay: Western blot of PKB phosphorylation, INS-1; assay type: cell-based, rat; details: up to 10 μM EGCG; with or without 100 nM insulin (FIG. 4D)
[7] = relatively long-term intraperitoneal application; rats; cited from earlier work
protein kinase B (PKB) [8] = assay: Western blot of PKB phosphorylation, HepG2; assay type: cell-based, human; details: up to 10 μM EGCG; with or without 100 nM insulin (FIG. 4B)
Method: (§3) Rat L6 myoblasts were cultured in low-glucose DMEM with 10% (v/v) FBS until they reached 80% confluency. To induce differentiation, cells were further cultured in DMEM (24.9 mM glucose) containing 2% FBS for 7 days. Cell viability was assessed by the trypan blue viability test. Myogenic differentiation to myotube status was evaluated both morphologically and biochemically. Mouse 3T3-L1 preadipocytes were grown to confluence at 37° C. in 35-mm culture dishes in DMEM containing 10% FCS with no added biotin or pantothenate in incubators equilibrated with 5% CO2. At two days post-confluence (day 0), differentiation was induced with methylisobutylxanthine (0.5 mM), dexamethasone (0.5 μM) and insulin (5 μg/ml) in DMEM containing 10% FBS. On day 2, methylisobutylxanthine and dexamethasone were removed and insulin treatment was continued for 2 additional days. On day 4 and thereafter, DMEM (without insulin supplementation) plus 10% FBS was replaced every 2 days. Cells (2×10^6 cells/dish) were used for experiments on day 8. Cell differentiation was evaluated by the Oil red-0 staining. Human hepatocellular carcinoma HepG2 cell line was maintained in DMEM containing 10% FBS at 37° C. […]

HepG2 hepatocytes = assay: Deoxyglucose uptake assay, HepG2; assay type: cell-based, human; details: EGCG 0.1, 1.0, 10 μM; with or without 100 nM insulin (FIG. 3B)
Method: as §1, §2

[9] = Insulin tolerance test (ITT) in Kir6.2 k/o mice; assay type: in vivo, mouse
Method: Kir6.2 knock-out (k/o) mice were kindly provided by Prof. Susumu Seino at Kobe University in Japan. Following a 4-h fast, Kir6.2 k/o mice or normal rats were intravenously injected with PBS (100 μl for mouse, 300 μl for rat) only, or PBS containing EGCG (10 mg/kg), natural GTE (100 mg/kg) or GC-deficient GTE (100 mg/kg). Thirty minutes after the injection, the mice and rats were injected intraperitoneally with normal saline (300 μl for mouse, 600 μl for rat) containing insulin (1 IU/kg; INSULIN LISPRO, Eli Lilly, Ind.). Blood samplings were done through the tail vein at the indicated times.

[10] = tested on: differentiated L6 myoblasts; assay: Deoxyglucose uptake assay, L6; assay type: cell-based, rat; details: EGCG 0.1, 1.0, 10 μM; with or without 100 nM insulin (FIG. 3A)
Method: as §1, §2

OGTT in rats = assay type: in vivo, rat; details: GC-deficient GTE 900 mg/kg or EGCG 90 mg/kg oral immediately before oral glucose; rats (FIG. 6D)
INS-1 beta cells = assay: Deoxyglucose uptake assay, INS-1; assay type: cell-based, rat; details: EGCG 0.1, 1.0, 10 μM; with or without 100 nM insulin (FIG. 3D)
Method: as §1, §2

protein kinase B (PKB) [11] = assay: Western blot of PKB phosphorylation, 3T3-L1; assay type: cell-based, mouse; details: up to 10 μM EGCG; with or without 100 nM insulin (FIG. 4C)
Method: as §3

protein kinase B (PKB) [12] = assay: Western blot of PKB phosphorylation, L6; assay type: cell-based, rat; details: up to 10 μM EGCG; with or without 100 nM insulin (FIG. 4A)
Method: as §3

Q: Which “concentration that inhibits cellular glucose uptake” value (U937 cells) does the source give for O=c1c(O)c(-c2ccc(O)c(O)c2)oc2cc(O)cc(O)c12 [quercetin] here?
A: The value was “around 10 μM”.

Q: Which “blood glucose levels 30 min after glucose loading vs control” value (from here on “blood glucose levels 30 min … vs control”) [1] does the source give for Oc1cc(O)c2c(c1)O[C@H](c1cc(O)c(O)c(O)c1)[C@H](O)C2 [EGC, epigallocatechin] here?
A: Its value is “no effects”.

Q: For O=c1c(O)c(-c2cc(O)c(O)c(O)c2)oc2cc(O)cc(O)c12 [myricetin], which “concentration that inhibits cellular glucose uptake” value (U937 cells) is on record?
A: Its value is “around 10 μM”.

Q: For O=C(O[C@@H]1Cc2c(O)cc(O)cc2O[C@@H]1c1ccc(O)c(O)c1)c1cc(O)c(O)c(O)c1 [ECG, epicatechin-3-gallate], which IC50 [2] is on record?
A: The IC50 was 100 nM.

Q: What about the “blood glucose levels 30 min … vs control” value [1] of the same molecule?
A: The value was “more elevated”.

Q: Which “blood concentration at 30 min after injection” value [3] does the source give for Epigallocatechin-3-gallate [EGCG] here?
A: The value was “around 1 μM”.

Q: And the “rate of blood glucose disappearance when treated with insulin” value ([4]; EGCG 10 mg/kg i.v. 30 min before insulin 1 IU/kg i.p., rats, P<0.01 (FIG. 5C))?
A: Its value is “delayed mildly but significantly”.

Q: What about the “blood glucose levels 30 min after injection” value ([4]; EGCG 10 mg/kg i.v., 4-h fasted normal rats, P<0.01 (FIG. 5A)) of the same molecule?
A: The value was “significant elevation”.

Q: And the “basal and insulin-stimulated 2-deoxy-[3H]-glucose uptake” value [5]?
A: Its value is “decreased by EGCG dose-dependently”.

Q: And the “basal and insulin-regulated expression of phospho-PKB” value (protein kinase B (PKB) [6])?
A: Its value is “did not alter”.

Q: What about the “effect on body weight” value [7] of the same molecule?
A: Its value is “weight loss”.

Q: What about the “effect on the sexual organs” value [7] of the same molecule?
A: The value was “significant deterioration in the sexual organs”.

Q: And the IC50 [2]?
A: Its IC50 is 1000 nM.

Q: And the “basal and insulin-regulated expression of phospho-PKB” value (protein kinase B (PKB) [8])?
A: The value was “did not alter”.

Q: What about the “blood glucose levels 30 min … vs control” value [1] of the same molecule?
A: Its value is “more elevated”.

Q: What about the “basal and insulin-stimulated 2-deoxy-[3H]-glucose uptake” value (HepG2 hepatocytes) of the same molecule?
A: The value was “decreased by EGCG dose-dependently”.

Q: What about the “rate of blood glucose disappearance when treated with insulin” value ([9]; EGCG 10 mg/kg i.v. 30 min before insulin 1 IU/kg i.p., Kir6.2 k/o mice, P<0.01 (FIG. 5D)) of the same molecule?
A: Its value is “delayed mildly but significantly”.

Q: What about the “blood glucose levels 30 min after injection” value ([9]; EGCG 10 mg/kg i.v., 4-h fasted Kir6.2 k/o mice, P<0.01 (FIG. 5B)) of the same molecule?
A: Its value is “significant elevation”.

Q: And the “basal and insulin-stimulated 2-deoxy-[3H]-glucose uptake” value [10]?
A: Its value is “decreased by EGCG dose-dependently”.

Q: And the “inhibition of glucose absorption compared with the GTE-treated group” value (OGTT in rats)?
A: Its value is “less efficiently”.

Q: What about the “basal and insulin-stimulated 2-deoxy-[3H]-glucose uptake” value (INS-1 beta cells) of the same molecule?
A: Its value is “decreased by EGCG dose-dependently”.

Q: And the “basal and insulin-regulated expression of phospho-PKB” value (protein kinase B (PKB) [11])?
A: The value was “did not alter”.

Q: What about the “basal and insulin-regulated expression of phospho-PKB” value (protein kinase B (PKB) [12]) of the same molecule?
A: The value was “did not alter”.
